The target in one assay is T1, α4β1 integrin (Homo sapiens, UniProt P05556+P13612).
T1 construct: endogenous in cells; host or cells: Ramos cells
T1 sequence (P13612 34-1032): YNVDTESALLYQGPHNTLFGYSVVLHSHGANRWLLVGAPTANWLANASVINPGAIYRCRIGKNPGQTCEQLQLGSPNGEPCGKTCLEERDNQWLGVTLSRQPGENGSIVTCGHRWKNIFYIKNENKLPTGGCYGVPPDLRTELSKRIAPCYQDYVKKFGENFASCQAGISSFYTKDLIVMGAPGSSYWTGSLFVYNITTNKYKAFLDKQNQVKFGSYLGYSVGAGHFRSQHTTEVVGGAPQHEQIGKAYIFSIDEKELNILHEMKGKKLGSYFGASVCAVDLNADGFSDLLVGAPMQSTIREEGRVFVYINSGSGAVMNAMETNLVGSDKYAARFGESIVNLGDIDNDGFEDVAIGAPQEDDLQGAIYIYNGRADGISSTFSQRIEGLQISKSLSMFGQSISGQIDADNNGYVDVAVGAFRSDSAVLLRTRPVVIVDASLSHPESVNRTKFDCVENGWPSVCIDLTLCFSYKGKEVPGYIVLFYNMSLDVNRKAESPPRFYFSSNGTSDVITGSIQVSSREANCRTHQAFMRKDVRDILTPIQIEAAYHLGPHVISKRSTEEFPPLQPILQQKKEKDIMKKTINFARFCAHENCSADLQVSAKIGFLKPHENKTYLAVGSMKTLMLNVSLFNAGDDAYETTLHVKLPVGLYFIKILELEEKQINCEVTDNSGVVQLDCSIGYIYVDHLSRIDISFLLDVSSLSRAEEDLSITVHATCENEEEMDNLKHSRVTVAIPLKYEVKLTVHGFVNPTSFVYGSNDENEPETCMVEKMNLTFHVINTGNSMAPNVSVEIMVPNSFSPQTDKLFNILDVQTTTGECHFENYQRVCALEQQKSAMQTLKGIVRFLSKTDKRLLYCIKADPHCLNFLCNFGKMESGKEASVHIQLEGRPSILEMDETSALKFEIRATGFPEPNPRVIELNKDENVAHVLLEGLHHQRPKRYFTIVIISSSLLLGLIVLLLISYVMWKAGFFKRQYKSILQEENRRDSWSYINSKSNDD
T1 sequence (P05556 21-798): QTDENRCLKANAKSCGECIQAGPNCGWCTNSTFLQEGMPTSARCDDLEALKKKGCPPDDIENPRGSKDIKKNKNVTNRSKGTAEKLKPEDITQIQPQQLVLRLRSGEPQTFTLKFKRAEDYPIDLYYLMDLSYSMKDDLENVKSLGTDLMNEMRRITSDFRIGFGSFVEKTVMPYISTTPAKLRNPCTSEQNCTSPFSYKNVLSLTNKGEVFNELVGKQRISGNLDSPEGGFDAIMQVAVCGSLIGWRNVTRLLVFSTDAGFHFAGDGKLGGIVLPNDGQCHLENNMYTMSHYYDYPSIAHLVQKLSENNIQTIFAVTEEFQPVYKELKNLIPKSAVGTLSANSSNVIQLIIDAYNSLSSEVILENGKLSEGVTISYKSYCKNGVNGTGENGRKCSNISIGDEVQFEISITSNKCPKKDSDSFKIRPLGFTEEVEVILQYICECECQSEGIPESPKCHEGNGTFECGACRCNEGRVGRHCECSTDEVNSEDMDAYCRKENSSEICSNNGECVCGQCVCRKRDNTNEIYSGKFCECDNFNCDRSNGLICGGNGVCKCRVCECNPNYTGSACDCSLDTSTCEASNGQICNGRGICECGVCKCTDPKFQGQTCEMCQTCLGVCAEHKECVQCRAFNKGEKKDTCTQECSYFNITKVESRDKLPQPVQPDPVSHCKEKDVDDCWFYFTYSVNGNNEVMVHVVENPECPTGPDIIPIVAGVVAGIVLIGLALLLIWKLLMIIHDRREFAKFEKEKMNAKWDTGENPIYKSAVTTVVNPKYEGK
In words: Adhesion of calcein-labeled Ramos cells to CS1 (fibronectin) peptide conjugated ovalbumin. Format: cell-based. The following applies: Table 6; Ramos cell adhesion to CS1 conjugated ovalbumin, 30 minutes at 37° C. An outline of the steps:
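Plates bearing CS1 fibronectin peptide coupled to ovalbumin (0.5 μg/ml coat, 3% BSA block) received calcein-labelled Ramos cells plus compound (100 μM stated) for 30 min at 37 °C. Buffer was TBS pH 7.5 with 1 mM Mg2+, Ca2+, Mn2+; bound cells quantified by fluorescence after lysis; […].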
With `CCOc1ccc([C@H](CC(=O)O)NC(=O)Nc2c(O)c(C)cn(Cc3c(C)cccc3Cl)c2=O)cc1OCC`, the IC50 is 3 nM.

In the case of `CCOc1ccc([C@H](CC(=O)O)NC(=O)Nc2c(O)c3c(n(Cc4ccccc4Cl)c2=O)CCC3)cc1OCC`, the IC50 is 3 nM.

With `CCOc1cccc([C@H](CC(=O)O)NC(=O)Nc2c(O)c(C)c(C)n(Cc3ccccc3Cl)c2=O)c1`, the IC50 is 30 nM.

Turning to `Cc1ccc([C@H](CC(=O)O)NC(=O)Nc2c(O)c(C)cn(Cc3c(F)cccc3F)c2=O)cc1`, the IC50 was 25 nM.

For the compound `COc1cc(Cn2cc(C)c(O)c(NC(=O)N[C@@H](CC(=O)O)c3ccc(C)cc3)c2=O)cc(OC)c1`, the IC50 is 70 nM.

Consider `Cc1ccc([C@H](CC(=O)O)NC(=O)Nc2c(O)ccn(Cc3cccc(S(C)(=O)=O)c3)c2=O)cc1`, for which the IC50 is 25 nM.

Staying with this assay, now noted: Table 7; Ramos cell adhesion to CS1 conjugated ovalbumin; dose required to give 50% inhibition.
For the compound `COCCOc1cccc(Cl)c1Cn1c2c(c(O)c(NC(=O)N[C@@H](CC(=O)O)c3ccc(C)cc3)c1=O)CCC2`, the IC50 was 6 nM.

For `CCOc1cccc([C@H](CC(=O)O)NC(=O)Nc2c(O)c3c(n(Cc4c(Cl)cccc4OCCOC)c2=O)CCC3)c1`, the IC50 is 4 nM.

On to `CCOc1cccc(Cl)c1Cn1c2c(c(O)c(NC(=O)N[C@@H](CC(=O)O)c3cccc(OC4CCCC4)c3)c1=O)CCC2`, for which the IC50 was 6 nM.

In the case of `CCOc1cccc(Cl)c1Cn1c(C)c(C)c(O)c(NC(=O)N[C@@H](CC(=O)O)c2ccccc2)c1=O`, the IC50 is 4 nM.

On to `CCOc1cccc(Cl)c1Cn1c(C)c(C)c(O)c(NC(=O)N[C@@H](CC(=O)O)c2ccc(C)cc2)c1=O`, for which the IC50 was 4 nM.

Turning to `CCOc1cccc([C@H](CC(=O)O)NC(=O)Nc2c(O)c(C)c(C)n(Cc3c(Cl)cccc3OCC)c2=O)c1`, the IC50 was 4 nM.

As to `CCOc1cccc(Cl)c1Cn1cc(C)c(O)c(NC(=O)N[C@@H](CC(=O)O)c2cccc(C(F)(F)F)c2)c1=O`, the IC50 is 3 nM.

On to `CCOc1cccc(Cl)c1Cn1c(C)c(CC)c(O)c(NC(=O)N[C@@H](CC(=O)O)c2ccc(C)cc2)c1=O`, for which the IC50 is 4 nM.

For `CCOc1cccc([C@H](CC(=O)O)NC(=O)Nc2c(O)c(CC)c(C)n(Cc3c(Cl)cccc3OCC)c2=O)c1`, the IC50 was 4 nM.

In the case of `CCOc1cccc(Cl)c1Cn1c(C)c(CC)c(O)c(NC(=O)N[C@@H](CC(=O)O)c2cccc(OC(C)C)c2)c1=O`, the IC50 was 5 nM.

Regarding `CCCOc1cccc([C@H](CC(=O)O)NC(=O)Nc2c(O)c3c(n(Cc4c(C)cccc4Cl)c2=O)CCC3)c1`, the IC50 is 12 nM.

With `Cc1cn(Cc2c(C)cccc2Cl)c(=O)c(NC(=O)N[C@@H](CC(=O)O)c2ccc3c(c2)CCO3)c1O`, the IC50 was 5 nM.

On to `O=C(O)C[C@H](NC(=O)Nc1c(O)c2c(n(Cc3ccccc3Cl)c1=O)CCC2)c1ccc2c(c1)CCO2`, for which the IC50 is 2 nM.

For `CCn1c(=O)n(CC)c2cc([C@H](CC(=O)O)NC(=O)Nc3c(O)c4c(n(Cc5ccccc5Cl)c3=O)CCC4)ccc21`, the IC50 is 4 nM.

Regarding `O=C(O)C[C@H](NC(=O)Nc1c(O)c2c(n(Cc3ccccc3Cl)c1=O)CCC2)c1cccc(OC2CC2)c1`, the IC50 is 4 nM.

As to `O=C(O)C[C@H](NC(=O)Nc1c(O)c2c(n(Cc3ccccc3Cl)c1=O)CCC2)c1ccccc1`, the IC50 was 8 nM.

On to `O=C(O)C[C@H](NC(=O)Nc1c(O)c2c(n(Cc3ccccc3Cl)c1=O)CCC2)c1cccc(OC2CCCC2)c1`, for which the IC50 was 7 nM.

For `COc1cc([C@H](CC(=O)O)NC(=O)Nc2c(O)c(C)cn(Cc3ccccc3Cl)c2=O)cc(OC)c1C`, the IC50 is 12 nM.

Take `COc1ccccc1-c1ccc([C@H](CC(=O)O)NC(=O)Nc2c(O)c(C)cn(Cc3ccccc3Cl)c2=O)cc1`: the IC50 is 25 nM.

For `CCOc1cccc(Cl)c1Cn1nc(C)c(O)c(NC(=O)N[C@@H](CC(=O)O)c2ccc(C)cc2)c1=O`, the IC50 is 7 nM.

As for `CCOc1cccc(Cl)c1Cn1nc(C)c(O)c(NC(=O)N[C@@H](CC(=O)O)c2cccc(OC(C)C)c2)c1=O`, the IC50 is 2 nM.

As for `CCOc1cccc([C@H](CC(=O)O)NC(=O)Nc2c(O)c(Cl)cn(Cc3c(Cl)cccc3OCC)c2=O)c1`, the IC50 is 3 nM.

For orientation: IC50 means the concentration at which inhibition is half-maximal.

The values above are taken from patent publication US6972296B2, “Carboxylic acid derivatives that inhibit the binding of integrins to their receptors” (Encysive Pharmaceuticals Inc., priority 1999, dated 2005).
